# Legend:
# [1] = test system: MCF-7 breast cancer cells; assay: MTT cytotoxicity assay, MCF-7; format: cell-based, human; conditions: Homo sapiens, MCF7; MTT, 72 h, n = 3; read-out: IC50 MCF-7 (Breast)
# Procedure: (§1) The synthesized derivatives were screened for their cytotoxic activities against five cancer cell lines (two breast cancer cell lines: MCF-7 and MDA-MB-231, two ovarian cancer cell lines: A2780 and KF-28, and one cervical cancer cell line: Hela). This study was performed using serial concentrations of 25, 50, 100, 150, and 200 µM of each compound using the MTT assay. Percentages of cell viability of the tested compounds with serial concentration against the tested panel of cell lines are depicted in Figure 1, in which there is a decrease in the cell viability with increasing concentrations in a dose–response pattern. […] Therefore, compounds 5a, 5b, and 5f were thought worthwhile to further investigate their effects as either cytotoxic or antiproliferative effects and whether any of them is an inducer of apoptotic cell death in the representative cancer cell lines KF-28 and A2780.
# (§2) The human ovarian serous carcinoma cell line KF-28 was kindly provided by Prof. Yoshihiro Kikuchi (Department of Obstetrics and Gynecology, National Defense Medical College, Saitama, Japan), and A2780 cell line was purchased from the ECACC (ECACC 93112519). The cells were maintained in RPMI-1640 (Sigma-Aldrich, United States). The cervical cancer cell line, Hela cells, breast cancer cell line, MCF-7, and MDA-MB-231 were purchased from the ATCC and cultured in DMEM. Both types of media were supplemented with 2 mM L-glutamine (Lonza, Belgium), 10% FBS (Sigma, St. Louis, MO, United States), and 1% penicillin/streptomycin (Lonza, Belgium). All cells were incubated at 37°C in 5% CO2 atmosphere (NuAire). All cancer cell lines were cultured according to the routine tissue culture work as discussed by the Freshney group ([Freshney, 2010]). The cells were plated at a density of 5,000 cells in triplicates in a 96-well plate. On the next day, the cells were treated with the indicated compound(s) at the indicated concentrations in a final volume of 100 μL media. Cell viability was assessed after 72 h using MTT solution (Promega) ([Mosmann, 1983]). 20 μL of the reagent was added to each well, the plate was incubated for 3 h, […] was subsequently measured (570 nm) using a plate reader, and then the IC50 values were calculated using Excel ([Tantawy et al., 2020]).
# [2] = test system: Hela cervical cancer cells; assay: MTT cytotoxicity assay, Hela; format: cell-based; conditions: Homo sapiens, MTT, 72 h, n = 3, read-out: IC50 Hela (Cervical)
# Procedure: as §1, §2
# [3] = test system: A2780 ovarian cancer cells; assay: MTT cytotoxicity assay, A2780; format: cell-based, human; conditions: Homo sapiens, A2780; MTT, 72 h, n = 3; read-out: IC50 A2780 (Ovarian)
# Procedure: as §1, §2
# [4] = test system: KF-28 ovarian cancer cells; assay: MTT cytotoxicity assay, KF-28; format: cell-based, human; conditions: Homo sapiens; MTT, 72 h, n = 3; read-out: IC50 KF-28 (Ovarian)
# Procedure: as §1, §2
# [5] = test system: MEF normal mouse embryonic fibroblast; assay: MTT cytotoxicity assay, MEF; format: cell-based; conditions: n = 3
# KF-28 cells = assay: Annexin V-FITC/PI apoptosis assessment; format: cell-based, human; conditions: 48 h, cisplatin 10 μM, DMSO control 0.45%
# Procedure: Therefore, we decided to use such technique to investigate if the cytotoxic effect of the compounds indicated by MTT and the cell cycle experiments is apoptotic cell death or not. For that purpose, two cell lines, KF-28 and A2780, were stained by annexin V/PI after treatment with different compounds vs. DMSO for two days in parallel with cisplatin as a reference drug. Results from annexin staining analysis show appreciated annexin V–stained populations when cells are treated with compounds 5a–c, 5f, and 9. […] Similar results were obtained from the other cell line, A2780, treated with the same compounds (Figure 2B).
# The cells were seeded into six-well culture plates (3–5 × 10^5 cells/well) and incubated overnight at 37°C, under 5% CO2. The cells were then treated with indicated compounds for 48 h. Next, media supernatants and the cells were collected and washed with ice-cold PBS. Next, the cells were stained with PI (10 mg/ml) for 30 min and analyzed for DNA contents using flow cytometry analysis using an FL2 (λex/em 535/617 nm) signal detector (ACEA Novocyte™ flow cytometer, ACEA Biosciences, Inc., San Diego, CA, United States). For each sample, 12,000 events are acquired. Cell cycle distribution is calculated using a CytoFLex machine and analyzed by CytExpert software. Flow cytometric methodologies (annexin V/PI staining with cell cycle analyses) are carried out as previously described ([Nafie et al., 2020a]; [Nafie et al., 2020b]; [Gad et al., 2020]).
# [6] = test system: MDA-MB-231 breast cancer cells; assay: MTT cytotoxicity assay, MDA-MB-231; format: cell-based; conditions: Homo sapiens, MDA-MB-231; MTT, 72 h, n = 3; read-out: IC50 MDA-MB-231 (Breast)
# Procedure: as §1, §2
SMILES,IC50 [1] [µM],IC50 [2] [µM],IC50 [3] [µM],IC50 [4] [µM],IC50 [5] [µM],Total apoptotic cell death (annexin V-positive cells) (KF-28 cells) [%],IC50 [6] [µM]
"Cc1[nH]c(=NN=C2CCC(=NN=c3[nH]c(C)c(N=Nc4ccccc4)s3)CC2)sc1N=Nc1ccccc1 [5a, 1,4-Bis((5-phenylazo-4-methylthiazol-2-ylidene)hydrazono)cyclohexane]",> 200,> 200,77.9,< 25,7.08,38.21,
"Cc1[nH]c(=NN=C2CCC(=NN=c3[nH]c(C)c(N=Nc4ccccc4Cl)s3)CC2)sc1N=Nc1ccccc1Cl [5f, 1,4-Bis((5-(2-chlorophenylazo)-4-methylthiazol-2-ylidene)hydrazono)cyclohexane]",> 200,> 200,< 25,< 25,> 200,,> 200
"Cc1ccc(N=Nc2sc(=NN=C3CCC(=NN=c4[nH]c(C)c(N=Nc5ccc(C)cc5)s4)CC3)[nH]c2C)cc1 [5b, 1,4-Bis((5-(4-tolylazo)-4-methylthiazol-2-ylidene)hydrazono)cyclohexane]",> 200,> 200,94.4,< 25,2.34,18.77,> 200
